Compound: Clc1ccc2c(N3CCN(CCCN4CCN(c5ccnc6cc(Cl)ccc56)CC4)CC3)ccnc2c1 [piperaquine]
Method: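 Kenyan Plasmodium falciparum field isolates (2008-2021) were tested in a SYBR Green I growth-inhibition assay, either immediately ex vivo (fresh samples) or in vitro after culture adaptation. Cultures were at 1% parasitemia and 2% hematocrit, incubated with serial drug dilutions for 72 h at 37 °C (5% O2, 5% CO2), then read by fluorescence. IC50 was fitted by non-linear regression of the dose-response curve.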

Row | Test System | IC50 growth inhibition [ng/mL]
1 | MDH 18/08/003 | 3.81
2 | MDH 18/08/004 | 0.851
3 | MDH 18/09/0008 | 3.25
4 | MDH 19/01/0029 | 9.67
5 | MDH 19/01/0031 | 26.2
6 | MDH 19/12/0045 | 30.2
7 | MGT16/01/118 | 3.04
8 | MGT 13/11/0003 | 22.9
9 | MGT 14/03/0007 | 6.4
10 | MGT 14/03/0008 | 27.2
11 | MGT 14/03/0009 | 62.4
12 | MGT 14/03/0012 | 8.31
13 | MGT 14/03/0015 | 7.79
14 | MGT 14/07/0033 | 3.35
15 | MGT 14/08/034 | 29.5
16 | MGT 15/06/0090 | 34.3
17 | MGT 15/10/104 | 3.35
18 | MGT 15/10/105 | 19.7
19 | MGT 17/11/133 | 3.35
20 | MGT 18/08/0004 | 1.64
21 | MGT 18/09/0013 | 3.48
22 | MGT 19/09/0054 | 32.6
23 | MGT 19/09/0057 | 29.7
24 | MGT 19/11/0063 | 13.6
25 | MGT 21/03/0108 | 7.8
26 | MGT 21/05/115 | 6.2
27 | MGT 21/05/0116 | 4.6
28 | MGT 21/08/0109 | 0.4
29 | MGT 21/08/0119 | 89.6
30 | MGT 21/08/0122 | 87.2
